From ChEMBL document CHEMBL4507293 (2021)

What was measured:
[1] = molecular target: 5-hydroxytryptamine receptor 2B (Homo sapiens) (UniProt P41595); conditions: Compound concentration 10.0 uM
[2] = molecular target: Phosphorylase b kinase gamma catalytic chain, skeletal muscle/heart isoform (Homo sapiens) (UniProt Q16816); conditions: Compound concentration 100.0 nM
[3] = molecular target: Misshapen-like kinase 1 (Homo sapiens) (UniProt Q8N4C8); conditions: Compound concentration 100.0 nM
[4] = molecular target: cGMP-dependent 3',5'-cyclic phosphodiesterase (Homo sapiens, UniProt O00408); assay: Biochemical assay (PDE2A)
[5] = molecular target: Serine/threonine-protein kinase PAK 6 (Homo sapiens) (UniProt Q9NQU5); conditions: Compound concentration 100.0 nM
Serine/threonine-protein kinase PAK 6 (Homo sapiens), sequence (Q9NQU5 whole entry, looked up): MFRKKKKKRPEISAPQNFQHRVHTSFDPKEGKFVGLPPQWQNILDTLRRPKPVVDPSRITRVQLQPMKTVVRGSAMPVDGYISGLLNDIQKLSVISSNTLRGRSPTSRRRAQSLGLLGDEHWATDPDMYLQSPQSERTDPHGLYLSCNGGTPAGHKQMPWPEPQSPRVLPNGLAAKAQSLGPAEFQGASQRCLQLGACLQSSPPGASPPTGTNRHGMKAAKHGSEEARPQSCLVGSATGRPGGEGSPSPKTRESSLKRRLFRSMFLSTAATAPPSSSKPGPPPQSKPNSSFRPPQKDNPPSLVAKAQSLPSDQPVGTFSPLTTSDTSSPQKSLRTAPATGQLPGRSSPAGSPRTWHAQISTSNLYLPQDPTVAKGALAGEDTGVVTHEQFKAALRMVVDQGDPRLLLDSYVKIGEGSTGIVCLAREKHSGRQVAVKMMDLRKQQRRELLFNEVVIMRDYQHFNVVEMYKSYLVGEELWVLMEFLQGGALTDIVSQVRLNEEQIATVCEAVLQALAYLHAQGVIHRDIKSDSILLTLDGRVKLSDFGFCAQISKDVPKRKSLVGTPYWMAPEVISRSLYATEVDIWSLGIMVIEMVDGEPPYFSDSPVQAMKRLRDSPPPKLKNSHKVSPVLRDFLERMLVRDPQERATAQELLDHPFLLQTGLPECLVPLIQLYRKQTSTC

[6] = molecular target: Ephrin type-A receptor 7 (Homo sapiens) (UniProt Q15375); conditions: Compound concentration 100.0 nM
[7] = molecular target: Testis-specific serine/threonine-protein kinase 3 (Homo sapiens) (UniProt Q96PN8); conditions: Compound concentration 100.0 nM
[8] = molecular target: Casein kinase II subunit alpha (Homo sapiens) (UniProt P68400); conditions: Compound concentration 100.0 nM
[9] = molecular target: Ribosomal protein S6 kinase alpha-5 (Homo sapiens) (UniProt O75582); conditions: Compound concentration 100.0 nM
Ribosomal protein S6 kinase alpha-5 (Homo sapiens), sequence (O75582 whole entry, looked up): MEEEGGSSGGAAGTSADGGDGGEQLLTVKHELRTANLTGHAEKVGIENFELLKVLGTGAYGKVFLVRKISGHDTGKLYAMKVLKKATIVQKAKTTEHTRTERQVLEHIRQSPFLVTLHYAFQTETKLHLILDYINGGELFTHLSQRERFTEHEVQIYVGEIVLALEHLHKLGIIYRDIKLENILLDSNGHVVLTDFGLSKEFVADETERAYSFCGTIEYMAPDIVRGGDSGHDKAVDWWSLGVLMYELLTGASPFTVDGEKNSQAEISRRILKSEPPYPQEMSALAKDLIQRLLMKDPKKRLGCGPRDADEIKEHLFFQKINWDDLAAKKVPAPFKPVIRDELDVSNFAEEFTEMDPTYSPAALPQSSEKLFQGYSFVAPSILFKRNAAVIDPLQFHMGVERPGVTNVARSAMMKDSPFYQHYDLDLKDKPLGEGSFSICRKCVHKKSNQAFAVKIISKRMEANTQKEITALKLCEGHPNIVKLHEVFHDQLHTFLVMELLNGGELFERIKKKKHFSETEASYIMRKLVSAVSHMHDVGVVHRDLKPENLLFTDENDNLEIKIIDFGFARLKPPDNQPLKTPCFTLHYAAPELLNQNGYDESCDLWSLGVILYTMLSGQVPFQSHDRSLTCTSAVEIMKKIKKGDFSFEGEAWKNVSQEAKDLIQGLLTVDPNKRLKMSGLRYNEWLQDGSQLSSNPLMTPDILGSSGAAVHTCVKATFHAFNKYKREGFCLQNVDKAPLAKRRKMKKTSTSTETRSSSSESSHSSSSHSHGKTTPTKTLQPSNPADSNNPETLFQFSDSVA

[10] = test system: Receptor-type tyrosine-protein kinase FLT3 (Homo sapiens), P36888 [D835H]; conditions: Compound concentration 100.0 nM
[11] = molecular target: Phosphatidylinositol 4,5-bisphosphate 3-kinase catalytic subunit beta isoform (Homo sapiens) (UniProt P42338); conditions: Compound concentration 100.0 nM
Phosphatidylinositol 4,5-bisphosphate 3-kinase catalytic subunit beta isoform (Homo sapiens), sequence (P42338 whole entry, looked up, canonical isoform): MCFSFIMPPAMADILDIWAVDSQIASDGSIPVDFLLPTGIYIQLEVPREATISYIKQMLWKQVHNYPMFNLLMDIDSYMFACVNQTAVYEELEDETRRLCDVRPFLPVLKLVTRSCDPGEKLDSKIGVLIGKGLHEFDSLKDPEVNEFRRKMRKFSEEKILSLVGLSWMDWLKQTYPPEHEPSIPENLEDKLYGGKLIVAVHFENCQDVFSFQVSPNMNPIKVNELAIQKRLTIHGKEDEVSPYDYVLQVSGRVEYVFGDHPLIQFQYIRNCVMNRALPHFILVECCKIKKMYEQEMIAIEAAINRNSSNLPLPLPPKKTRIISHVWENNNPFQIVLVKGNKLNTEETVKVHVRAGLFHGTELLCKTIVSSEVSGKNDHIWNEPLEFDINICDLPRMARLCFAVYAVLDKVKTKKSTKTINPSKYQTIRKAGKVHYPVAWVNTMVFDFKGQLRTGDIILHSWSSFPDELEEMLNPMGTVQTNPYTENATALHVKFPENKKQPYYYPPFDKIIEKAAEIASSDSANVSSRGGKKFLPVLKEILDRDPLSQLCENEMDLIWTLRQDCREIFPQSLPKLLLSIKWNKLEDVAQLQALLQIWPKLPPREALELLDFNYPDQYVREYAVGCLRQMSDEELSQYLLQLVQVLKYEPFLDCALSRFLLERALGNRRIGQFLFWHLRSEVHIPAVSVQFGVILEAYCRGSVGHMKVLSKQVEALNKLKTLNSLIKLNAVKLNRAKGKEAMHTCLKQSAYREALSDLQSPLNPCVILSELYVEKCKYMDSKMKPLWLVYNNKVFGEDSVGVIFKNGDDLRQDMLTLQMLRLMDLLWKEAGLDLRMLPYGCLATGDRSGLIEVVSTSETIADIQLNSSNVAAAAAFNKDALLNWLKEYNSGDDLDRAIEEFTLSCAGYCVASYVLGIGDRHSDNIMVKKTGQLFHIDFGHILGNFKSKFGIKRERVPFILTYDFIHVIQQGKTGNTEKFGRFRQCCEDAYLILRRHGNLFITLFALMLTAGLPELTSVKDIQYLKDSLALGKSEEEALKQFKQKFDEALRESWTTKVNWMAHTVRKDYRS

[12] = molecular target: Homeodomain-interacting protein kinase 3 (Homo sapiens) (UniProt Q9H422); conditions: Compound concentration 100.0 nM
[13] = molecular target: Activin receptor type-1-like (Homo sapiens) (UniProt P37023); conditions: Compound concentration 100.0 nM
[14] = molecular target: Serine/threonine-protein kinase Nek11 (Homo sapiens) (UniProt Q8NG66); conditions: Compound concentration 100.0 nM
[15] = molecular target: MAP kinase-activated protein kinase 5 (Homo sapiens) (UniProt Q8IW41); conditions: Compound concentration 100.0 nM
[16] = molecular target: 3',5'-cyclic-AMP phosphodiesterase 4A (Homo sapiens, UniProt P27815); assay: Biochemical assay (PDE4A)
[17] = molecular target: Serine/threonine-protein kinase MRCK alpha (Homo sapiens) (UniProt Q5VT25); conditions: Compound concentration 100.0 nM
[18] = molecular target: Serine/threonine-protein kinase MARK2 (Homo sapiens) (UniProt Q7KZI7); conditions: Compound concentration 100.0 nM
[19] = molecular target: Aurora kinase B (Homo sapiens) (UniProt Q96GD4); conditions: Compound concentration 100.0 nM
Aurora kinase B (Homo sapiens), sequence (Q96GD4 whole entry, canonical isoform): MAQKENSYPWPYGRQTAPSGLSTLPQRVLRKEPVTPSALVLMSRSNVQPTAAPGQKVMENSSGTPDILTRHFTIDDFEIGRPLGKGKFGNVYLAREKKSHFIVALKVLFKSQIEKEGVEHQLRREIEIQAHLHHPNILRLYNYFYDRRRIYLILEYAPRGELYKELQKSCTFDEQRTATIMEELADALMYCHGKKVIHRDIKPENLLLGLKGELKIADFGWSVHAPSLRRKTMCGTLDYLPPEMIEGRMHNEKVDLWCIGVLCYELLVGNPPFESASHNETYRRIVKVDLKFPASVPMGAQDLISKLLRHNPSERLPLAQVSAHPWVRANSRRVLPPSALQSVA

[20] = molecular target: Phosphatidylinositol 4,5-bisphosphate 3-kinase catalytic subunit alpha isoform (Homo sapiens) (UniProt P42336); conditions: Compound concentration 100.0 nM
Phosphatidylinositol 4,5-bisphosphate 3-kinase catalytic subunit alpha isoform (Homo sapiens), sequence (P42336 whole entry, canonical isoform): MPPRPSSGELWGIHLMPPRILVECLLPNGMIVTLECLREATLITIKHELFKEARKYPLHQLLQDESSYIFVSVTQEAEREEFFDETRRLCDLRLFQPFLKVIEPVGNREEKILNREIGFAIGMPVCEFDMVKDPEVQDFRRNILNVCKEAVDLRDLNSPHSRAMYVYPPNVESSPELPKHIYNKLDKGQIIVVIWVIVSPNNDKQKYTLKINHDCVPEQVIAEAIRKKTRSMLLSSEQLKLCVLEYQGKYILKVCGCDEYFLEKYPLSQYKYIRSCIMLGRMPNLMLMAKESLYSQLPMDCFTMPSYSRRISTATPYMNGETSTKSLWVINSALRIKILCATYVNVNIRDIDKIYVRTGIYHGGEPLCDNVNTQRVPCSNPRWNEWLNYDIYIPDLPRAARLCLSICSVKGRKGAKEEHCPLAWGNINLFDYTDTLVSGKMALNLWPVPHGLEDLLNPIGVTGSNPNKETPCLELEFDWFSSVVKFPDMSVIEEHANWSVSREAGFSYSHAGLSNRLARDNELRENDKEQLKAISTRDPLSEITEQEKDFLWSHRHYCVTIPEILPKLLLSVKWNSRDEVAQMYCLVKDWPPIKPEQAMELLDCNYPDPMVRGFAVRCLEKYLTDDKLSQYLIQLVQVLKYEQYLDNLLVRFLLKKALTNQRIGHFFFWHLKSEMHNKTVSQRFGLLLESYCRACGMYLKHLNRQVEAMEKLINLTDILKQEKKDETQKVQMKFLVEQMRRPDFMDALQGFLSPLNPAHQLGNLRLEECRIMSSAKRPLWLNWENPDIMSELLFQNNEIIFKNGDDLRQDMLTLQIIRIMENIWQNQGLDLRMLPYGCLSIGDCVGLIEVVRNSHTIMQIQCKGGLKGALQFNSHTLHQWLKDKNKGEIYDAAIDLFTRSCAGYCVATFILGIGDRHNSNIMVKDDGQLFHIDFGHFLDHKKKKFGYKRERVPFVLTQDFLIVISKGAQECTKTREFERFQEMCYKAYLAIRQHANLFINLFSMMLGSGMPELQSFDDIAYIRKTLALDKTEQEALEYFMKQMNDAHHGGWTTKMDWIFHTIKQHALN

[21] = molecular target: Tyrosine-protein kinase Fer (Homo sapiens) (UniProt P16591); conditions: Compound concentration 100.0 nM
[22] = molecular target: Tyrosine-protein kinase ABL1 (Homo sapiens) (UniProt P00519); conditions: Compound concentration 100.0 nM
[23] = molecular target: Mitogen-activated protein kinase 7 (Homo sapiens) (UniProt Q13164); conditions: Compound concentration 100.0 nM
[24] = molecular target: Non-receptor tyrosine-protein kinase TYK2 (Homo sapiens) (UniProt P29597); conditions: Compound concentration 100.0 nM
[25] = molecular target: Serine/threonine-protein kinase DCLK3 (Homo sapiens) (UniProt Q9C098); conditions: Compound concentration 100.0 nM
[26] = molecular target: Serine/threonine-protein kinase Nek6 (Homo sapiens) (UniProt Q9HC98); conditions: Compound concentration 100.0 nM
[27] = test system: Mast/stem cell growth factor receptor Kit (Homo sapiens), P10721 [V559D,V654A]; conditions: Compound concentration 100.0 nM
[28] = test system: Phosphatidylinositol 4,5-bisphosphate 3-kinase catalytic subunit alpha isoform (Homo sapiens), P42336 [Q546K]; conditions: Compound concentration 100.0 nM
[29] = molecular target: Phosphatidylinositol 3-kinase C2 domain-containing subunit gamma (Homo sapiens) (UniProt O75747); conditions: Compound concentration 100.0 nM
[30] = molecular target: Phosphatidylinositol 4,5-bisphosphate 3-kinase catalytic subunit delta isoform (Homo sapiens) (UniProt O00329); conditions: Compound concentration 100.0 nM
[31] = molecular target: Mitogen-activated protein kinase kinase kinase 7 (Homo sapiens) (UniProt O43318); conditions: Compound concentration 100.0 nM
[32] = test system: Fibroblast growth factor receptor 3 (Homo sapiens), P22607 [G697C]; conditions: Compound concentration 100.0 nM
[33] = molecular target: Ribosomal protein S6 kinase alpha-4 (Homo sapiens) (UniProt O75676); conditions: Compound concentration 100.0 nM
[34] = molecular target: Activin receptor type-1 (Homo sapiens) (UniProt Q04771); conditions: Compound concentration 100.0 nM
[35] = molecular target: Mitogen-activated protein kinase kinase kinase 3 (Homo sapiens) (UniProt Q99759); conditions: Compound concentration 100.0 nM
Mitogen-activated protein kinase kinase kinase 3 (Homo sapiens), sequence (Q99759 whole entry): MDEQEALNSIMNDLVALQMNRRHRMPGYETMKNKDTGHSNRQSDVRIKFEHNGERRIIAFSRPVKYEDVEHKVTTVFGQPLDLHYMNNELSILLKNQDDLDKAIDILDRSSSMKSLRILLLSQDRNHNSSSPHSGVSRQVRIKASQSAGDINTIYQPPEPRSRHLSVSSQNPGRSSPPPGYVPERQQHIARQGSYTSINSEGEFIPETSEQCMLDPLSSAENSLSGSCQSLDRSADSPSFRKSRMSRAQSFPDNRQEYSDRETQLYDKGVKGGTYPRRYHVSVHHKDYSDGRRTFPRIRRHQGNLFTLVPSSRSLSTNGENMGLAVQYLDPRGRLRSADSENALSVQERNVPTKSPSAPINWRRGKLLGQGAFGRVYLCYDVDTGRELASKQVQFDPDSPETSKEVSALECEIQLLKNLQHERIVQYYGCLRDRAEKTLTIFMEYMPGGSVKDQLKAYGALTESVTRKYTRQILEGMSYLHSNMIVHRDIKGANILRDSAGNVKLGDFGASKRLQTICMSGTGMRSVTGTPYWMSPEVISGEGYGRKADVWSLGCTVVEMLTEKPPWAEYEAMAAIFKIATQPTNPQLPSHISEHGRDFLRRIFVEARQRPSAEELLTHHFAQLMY

[36] = molecular target: NUAK family SNF1-like kinase 2 (Homo sapiens) (UniProt Q9H093); conditions: Compound concentration 100.0 nM
[37] = molecular target: Serine/threonine-protein kinase Nek2 (Homo sapiens) (UniProt P51955); conditions: Compound concentration 100.0 nM
[38] = test system: Epidermal growth factor receptor (Homo sapiens), P00533 [UNDEFINED MUTATION]; conditions: Compound concentration 100.0 nM
[39] = molecular target: Serine/threonine-protein kinase MRCK beta (Homo sapiens) (UniProt Q9Y5S2); conditions: Compound concentration 100.0 nM
[40] = molecular target: Dual specificity mitogen-activated protein kinase kinase 5 (Homo sapiens) (UniProt Q13163); conditions: Compound concentration 100.0 nM
[41] = molecular target: Atypical kinase COQ8A, mitochondrial (Homo sapiens) (UniProt Q8NI60); conditions: Compound concentration 100.0 nM
[42] = molecular target: Cyclin-G-associated kinase (Homo sapiens) (UniProt O14976); conditions: Compound concentration 100.0 nM
[43] = molecular target: Inhibitor of nuclear factor kappa-B kinase subunit epsilon (Homo sapiens) (UniProt Q14164); conditions: Compound concentration 100.0 nM
[44] = molecular target: Serine/threonine-protein kinase MAK (Homo sapiens) (UniProt P20794); conditions: Compound concentration 100.0 nM

5-hydroxytryptamine receptor 2B (Homo sapiens), sequence (P41595 whole entry, canonical isoform): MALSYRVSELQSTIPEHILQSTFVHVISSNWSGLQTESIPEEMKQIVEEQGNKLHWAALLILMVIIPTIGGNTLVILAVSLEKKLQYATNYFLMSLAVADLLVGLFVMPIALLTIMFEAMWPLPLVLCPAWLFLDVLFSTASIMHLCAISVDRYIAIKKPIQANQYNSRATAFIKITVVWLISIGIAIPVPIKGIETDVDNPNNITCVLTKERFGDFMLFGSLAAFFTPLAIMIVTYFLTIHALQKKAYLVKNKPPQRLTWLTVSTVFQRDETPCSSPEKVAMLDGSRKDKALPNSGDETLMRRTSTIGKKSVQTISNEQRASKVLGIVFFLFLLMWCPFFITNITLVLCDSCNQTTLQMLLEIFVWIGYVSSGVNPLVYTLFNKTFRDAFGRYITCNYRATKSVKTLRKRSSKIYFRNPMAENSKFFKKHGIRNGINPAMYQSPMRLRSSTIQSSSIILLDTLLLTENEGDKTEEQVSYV

CC(C)CC(=O)N1CCc2nc(-c3ccc(Br)cc3)nc(N(C)Cc3ccccc3)c2C1 [THPP-1-NC]
inhibition [1]: 7.85%
residual activity [2]: 100%
residual activity [3]: 100%
Ki [4]: > 100 µM (not active)
residual activity [5]: 100%
residual activity [6]: 99%
residual activity [7]: 100%
residual activity [8]: 100%
residual activity [9]: 100%
residual activity [10]: 100%
residual activity [11]: 100%
residual activity [12]: 100%
residual activity [13]: 99%
residual activity [14]: 98%
residual activity [15]: 100%
Ki [16]: 9.83 µM (not active)
residual activity [17]: 100%
residual activity [18]: 100%
residual activity [19]: 92%
residual activity [20]: 77%
residual activity [21]: 100%
residual activity [22]: 58%
residual activity [23]: 100%
residual activity [24]: 100%
residual activity [25]: 100%
residual activity [26]: 100%
residual activity [27]: 98%
residual activity [28]: 97%
residual activity [29]: 100%
residual activity [30]: 82%
residual activity [31]: 78%
residual activity [32]: 100%
residual activity [33]: 100%
residual activity [34]: 100%
residual activity [35]: 77%
residual activity [36]: 100%
residual activity [37]: 100%
residual activity [38]: 99%
residual activity [39]: 99%
residual activity [40]: 98%
residual activity [41]: 100%
residual activity [42]: 100%
residual activity [43]: 100%
residual activity [44]: 99%

COCCOc1nc(-c2ccc(Cl)nc2)nc2c1CN(C(=O)c1ncn3ccccc13)CC2 [THPP-1]
inhibition [1]: 3.25%
residual activity [2]: 100%
residual activity [3]: 100%
Ki [4]: 1.2 µM (not active)
residual activity [5]: 100%
residual activity [6]: 100%
residual activity [7]: 100%
residual activity [8]: 99%
residual activity [9]: 100%
residual activity [10]: 100%
residual activity [11]: 100%
residual activity [12]: 100%
residual activity [13]: 100%
residual activity [14]: 100%
residual activity [15]: 100%
Ki [16]: 5.9 µM (not active)
residual activity [17]: 100%
residual activity [18]: 100%
residual activity [19]: 97%
residual activity [20]: 85%
residual activity [21]: 100%
residual activity [22]: 60%
residual activity [23]: 100%
residual activity [24]: 100%
residual activity [25]: 100%
residual activity [26]: 100%
residual activity [27]: 75%
residual activity [28]: 87%
residual activity [29]: 100%
residual activity [30]: 94%
residual activity [31]: 93%
residual activity [32]: 100%
residual activity [33]: 100%
residual activity [34]: 100%
residual activity [35]: 96%
residual activity [36]: 100%
residual activity [37]: 100%
residual activity [38]: 100%
residual activity [39]: 100%
residual activity [40]: 100%
residual activity [41]: 100%
residual activity [42]: 100%
residual activity [43]: 100%
residual activity [44]: 100%
